SMILES strings stand for the structures.

Epidermal growth factor receptor, sequence (P00533 whole entry): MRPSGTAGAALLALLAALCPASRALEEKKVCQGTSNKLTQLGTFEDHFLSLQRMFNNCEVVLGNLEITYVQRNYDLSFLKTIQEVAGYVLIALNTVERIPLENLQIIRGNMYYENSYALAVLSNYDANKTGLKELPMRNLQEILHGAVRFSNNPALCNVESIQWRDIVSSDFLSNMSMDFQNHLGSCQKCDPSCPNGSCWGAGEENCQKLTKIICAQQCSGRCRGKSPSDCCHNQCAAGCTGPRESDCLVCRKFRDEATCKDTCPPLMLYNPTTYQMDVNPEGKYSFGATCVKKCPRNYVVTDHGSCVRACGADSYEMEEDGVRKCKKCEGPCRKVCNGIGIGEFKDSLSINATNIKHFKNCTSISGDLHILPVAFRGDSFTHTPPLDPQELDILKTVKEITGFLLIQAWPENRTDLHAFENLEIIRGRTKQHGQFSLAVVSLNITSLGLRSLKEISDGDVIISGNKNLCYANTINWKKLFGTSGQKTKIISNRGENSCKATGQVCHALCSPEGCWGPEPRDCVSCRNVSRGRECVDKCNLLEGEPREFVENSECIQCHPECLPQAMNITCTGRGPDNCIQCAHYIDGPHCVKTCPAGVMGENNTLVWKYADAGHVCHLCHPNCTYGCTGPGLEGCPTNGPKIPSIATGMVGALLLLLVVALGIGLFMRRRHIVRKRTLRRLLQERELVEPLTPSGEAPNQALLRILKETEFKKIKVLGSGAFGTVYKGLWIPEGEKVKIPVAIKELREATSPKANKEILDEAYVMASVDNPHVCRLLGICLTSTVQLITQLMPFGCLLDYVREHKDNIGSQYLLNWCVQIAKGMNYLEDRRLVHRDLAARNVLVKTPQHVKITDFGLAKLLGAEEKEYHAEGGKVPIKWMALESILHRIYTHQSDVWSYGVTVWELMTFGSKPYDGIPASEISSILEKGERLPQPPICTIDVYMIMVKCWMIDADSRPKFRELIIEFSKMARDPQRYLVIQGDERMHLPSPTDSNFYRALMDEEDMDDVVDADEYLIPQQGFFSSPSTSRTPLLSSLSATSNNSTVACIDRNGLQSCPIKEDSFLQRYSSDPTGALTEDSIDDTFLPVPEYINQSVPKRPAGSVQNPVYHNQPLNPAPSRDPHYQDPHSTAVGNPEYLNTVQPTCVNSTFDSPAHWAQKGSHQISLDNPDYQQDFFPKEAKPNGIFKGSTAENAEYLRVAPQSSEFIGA

The first experiment addresses Epidermal growth factor receptor (Homo sapiens, UniProt P00533). Kind of experiment: Inhibition of the tyrosine kinase activity of the human epidermal growth factor receptor (EGFR).
As a reminder, the IC50 is the concentration needed to halve the response being measured. `O=C(CCc1c(SSc2[nH]c3ccccc3c2CCC(=O)NCCc2ccccc2)[nH]c2ccccc12)NCCc1ccccc1`: it took 24 µM to reach half-maximal inhibition (IC50). `COC(=O)c1ccc(CNC(=O)CCc2c(SSc3[nH]c4ccccc4c3CCC(=O)NCc3ccc(C(=O)OC)c(O)c3)[nH]c3ccccc23)cc1O` registered a 50% inhibitory concentration (IC50) of 100 µM. In the case of `O=C(CCC1C(=S)Nc2ccccc21)NCc1ccccc1` (configuration not stated), half-maximal inhibition (IC50) was put at 100 µM. Same read-out and setting: with `O=C(CCc1c(SSc2[nH]c3ccccc3c2CCC(=O)NCc2ccc(C(=O)O)cc2)[nH]c2ccccc12)NCc1ccc(C(=O)O)cc1` the figure was 7.4 µM. Still for that read-out and setting: with `O=C(CC1C(=S)Nc2ccccc21)NCc1ccccc1` (configuration not stated) the figure was 100 µM; with `O=C(CCCc1c(SSc2[nH]c3ccccc3c2CCCC(=O)NCc2ccccc2)[nH]c2ccccc12)NCc1ccccc1`, 100 µM. The compound `O=C(CCc1c(SSc2[nH]c3ccccc3c2CCC(=O)Nc2ccccc2)[nH]c2ccccc12)Nc1ccccc1` displayed a half-maximal inhibitory concentration (IC50) of 25 µM.

Take `N#CCCc1c(SSc2[nH]c3ccccc3c2CCC#N)[nH]c2ccccc12`: inhibition was half-maximal at 47 µM (IC50). Still for that read-out and setting: with `O=C(NCc1ccccc1)C(O)Cc1c(SSc2[nH]c3ccccc3c2CC(O)C(=O)NCc2ccccc2)[nH]c2ccccc12` (configuration not stated) the figure was 14 µM. `O=[N+]([O-])CCc1c(SSc2[nH]c3ccccc3c2CC[N+](=O)[O-])[nH]c2ccccc12` yielded a half-inhibitory concentration (IC50) of 89 µM. As for `NC(Cc1c(SSc2[nH]c3ccccc3c2CC(N)C(=O)NCc2ccccc2)[nH]c2ccccc12)C(=O)NCc1ccccc1` (configuration not stated), the half-maximal inhibitory concentration (IC50) amounted to 7.6 µM.

Consider `CNC(=O)CCc1c(SSc2[nH]c3ccccc3c2CCC(=O)NC)[nH]c2ccccc12`, for which the IC50 turned out to be 9.4 µM. As to `CC(=O)NC(Cc1c(SSc2[nH]c3ccccc3c2CC(NC(C)=O)C(=O)NCc2ccccc2)[nH]c2ccccc12)C(=O)NCc1ccccc1` (configuration not stated), half-maximal inhibition (IC50) required 51 µM. Still for that read-out and setting: with `O=C(CCc1c(SSc2[nH]c3ccccc3c2CCC(=O)NCc2ccc(C(=O)O)c(O)c2)[nH]c2ccccc12)NCc1ccc(C(=O)O)c(O)c1` the figure was 8.5 µM; with `N#CCc1c(SSc2[nH]c3ccccc3c2CC#N)[nH]c2ccccc12`, 32 µM; with `CC(=O)OC(Cc1c(SSc2[nH]c3ccccc3c2CC(OC(C)=O)C(=O)NCc2ccccc2)[nH]c2ccccc12)C(=O)NCc1ccccc1` (configuration not stated), 28 µM. Still for that read-out and setting: with `O=C(NCc1ccccc1)C(Cc1c(SSc2[nH]c3ccccc3c2CC(NC(=O)C(F)(F)F)C(=O)NCc2ccccc2)[nH]c2ccccc12)NC(=O)C(F)(F)F` (configuration not stated) the figure was more than 100 µM; with `CN(C)C(=O)CCc1c(SSc2[nH]c3ccccc3c2CCC(=O)N(C)C)[nH]c2ccccc12`, 12 µM.

The subject of the next experiment is NIH3T3. Kind of experiment: Compound was tested for the concentration necessary to inhibit swiss 3T3 Mouse Fibroblast cell growth rate by 50%. It counts as functional, cell-based.
As for `O=C(CCc1c(SSc2[nH]c3ccccc3c2CCC(=O)NCc2ccccc2)[nH]c2ccccc12)NCc1ccccc1`, the concentration for half-maximal inhibition (IC50) turned out to be 5.9 µM. On to `NC(Cc1c(SSc2[nH]c3ccccc3c2CC(N)C(=O)NCc2ccccc2)[nH]c2ccccc12)C(=O)NCc1ccccc1` (configuration not stated), for which the half-maximal inhibitory concentration (IC50) was 5.3 µM. Regarding `O=C(Cc1c(SSc2[nH]c3ccccc3c2CC(=O)NCc2ccccc2)[nH]c2ccccc12)NCc1ccccc1`, the IC50 was found to be 2.7 µM. Compound `O=C(O)CCc1c(SSc2[nH]c3ccccc3c2CCC(=O)O)[nH]c2ccccc12` gave a concentration for half-maximal inhibition (IC50) of 60 µM.
